{"source": "patent US7820706B2", "about": "“Multiple dose aromatase inhibitor for treating infertility” (Ares Trading S.A., priority 2001, dated 2010)", "key": {"[1]": {"system": "patients who failed to ovulate or ovulated with endometrial thickness <5 mm in response to CC", "assay": "Example 1: letrozole for ovulation induction after CC failure", "format": "in vivo, human", "excerpt": "HCG 10,000 IU was given to all except one patient to trigger ovulation. Ten patients completed 12 cycles (one patient completed three cycles)."}, "[2]": {"system": "patients who failed to ovulate or ovulated with endometrial thickness <5 mm in response to CC", "description": "HCG 10,000 IU was given to trigger ovulation. CC was given in a dose of 50-100 mg on days 3-7 or 5-9."}, "aromatase [3]": {"target": "T1, aromatase (Rattus norvegicus, UniProt P22443)", "T1 sequence (P22443 1-508)": "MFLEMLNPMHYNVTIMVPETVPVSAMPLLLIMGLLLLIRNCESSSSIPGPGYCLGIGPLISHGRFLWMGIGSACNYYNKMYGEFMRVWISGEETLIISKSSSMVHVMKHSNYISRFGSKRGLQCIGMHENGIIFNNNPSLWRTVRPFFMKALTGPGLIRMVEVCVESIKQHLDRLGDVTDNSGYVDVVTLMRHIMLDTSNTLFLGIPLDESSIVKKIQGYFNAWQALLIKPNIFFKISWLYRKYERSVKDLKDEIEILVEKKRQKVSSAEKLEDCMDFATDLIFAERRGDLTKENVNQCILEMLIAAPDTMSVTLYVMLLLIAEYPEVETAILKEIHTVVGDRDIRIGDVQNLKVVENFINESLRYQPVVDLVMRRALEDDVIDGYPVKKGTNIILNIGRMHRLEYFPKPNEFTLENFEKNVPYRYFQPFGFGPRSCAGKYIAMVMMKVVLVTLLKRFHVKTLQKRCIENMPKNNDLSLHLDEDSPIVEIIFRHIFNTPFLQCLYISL", "conditions": "given orally; cited from earlier work"}, "mature female rats": {"system": "mature female rats", "conditions": "cited from earlier work"}, "[4]": {"conditions": "oral, healthy postmenopausal women; cited from earlier work"}, "[5]": {"conditions": "in vivo; cited from earlier work"}, "[6]": {"system": "women with PCOS; ovulatory women", "conditions": "cited from earlier work"}, "[7]": {"system": "ovulatory women with unexplained infertility and anovulatory women with PCOS", "conditions": "cited from earlier work"}, "mice": {"system": "mice", "conditions": "mouse, in vivo; cited from earlier work"}, "rats": {"system": "rats", "conditions": "rat, in vivo; cited from earlier work"}, "[8]": {"system": "patients with PCOS with inadequate response to CC", "conditions": "cited from earlier work"}, "anovulatory women": {"system": "anovulatory women", "conditions": "cited from earlier work"}, "[9]": {"system": "endometrium of normal women", "conditions": "morphometric analysis; cited from earlier work"}, "[10]": {"system": "postmenopausal breast cancer patients", "conditions": "lethargy, rashes, nausea and fever; cited from earlier work"}, "aromatase [11]": {"target": "T2, aromatase (Homo sapiens, UniProt P11511)", "T2 sequence (P11511 1-503)": "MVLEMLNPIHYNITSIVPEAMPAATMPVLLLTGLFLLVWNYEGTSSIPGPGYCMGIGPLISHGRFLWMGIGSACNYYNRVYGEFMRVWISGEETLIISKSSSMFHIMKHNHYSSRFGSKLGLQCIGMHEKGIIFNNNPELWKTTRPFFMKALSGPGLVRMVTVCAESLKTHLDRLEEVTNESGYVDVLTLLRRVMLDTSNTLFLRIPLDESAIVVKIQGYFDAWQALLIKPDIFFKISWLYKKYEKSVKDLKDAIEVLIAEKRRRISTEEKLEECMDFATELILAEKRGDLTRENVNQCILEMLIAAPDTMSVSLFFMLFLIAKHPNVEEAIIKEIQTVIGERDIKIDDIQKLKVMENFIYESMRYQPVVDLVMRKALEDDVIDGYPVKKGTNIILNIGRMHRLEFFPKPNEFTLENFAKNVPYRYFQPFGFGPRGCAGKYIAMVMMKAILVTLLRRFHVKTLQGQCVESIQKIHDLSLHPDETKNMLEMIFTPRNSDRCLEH", "conditions": "cited from earlier work"}}, "note": "Structures can show the parent of a compound that is named as a salt. Where two headings read alike, the source gives them in different places.", "data": [{"smiles": "N#Cc1ccc(C(c2ccc(C#N)cc2)n2cncn2)cc1", "note": "[letrozole]", "values": [{"measurement": "pregnancy, patients", "setting": "[1]; 4 out of 10 patients", "result": 40, "unit": "%"}, {"measurement": "ovulation, cycles", "setting": "[1]; 9 of 12 cycles, 2.5 to 5 mg/day", "result": 75, "unit": "%"}, {"measurement": "Endometrial Thickness", "setting": "[1]; mean", "result": 0.8, "unit": "Cm."}, {"measurement": "Estradiol on day of HCG admin.", "setting": "[1]; mean", "result": 1036, "unit": "pmol"}, {"measurement": "Endometrial Thickness", "setting": "[1]; median", "result": 0.8, "unit": "Cm."}, {"measurement": "Estradiol on day of HCG admin.", "setting": "[1]; median", "result": 988, "unit": "pmol"}, {"measurement": "Endometrial Thickness", "setting": "[1]; range", "result": "0.6-0.9 Cm."}, {"measurement": "Follicles >1.5 Cm On day of HCG admin.", "setting": "[1]; range", "result": "1-3"}, {"measurement": "pregnancy, patients", "setting": "[2]; 5 out of 15 patients", "result": 33, "unit": "%"}, {"measurement": "ovulation, cycles", "setting": "[2]; 13 of 17 letrozole cycles", "result": 77, "unit": "%"}, {"measurement": "Endometrial Thickness", "setting": "[2]; mean", "result": 0.8, "unit": "Cm."}, {"measurement": "Estradiol per mature follicle", "setting": "[2]; mean", "result": 392, "unit": "pmol/L"}, {"measurement": "Number of Days from last letrozole tablet to HCG day", "setting": "[2]; mean", "result": 6.7}, {"measurement": "Endometrial Thickness", "setting": "[2]; median", "result": 0.8, "unit": "Cm."}, {"measurement": "Estradiol per mature follicle", "setting": "[2]; median", "result": 289, "unit": "pmol/L"}, {"measurement": "Number of Days from last letrozole tablet to HCG day", "setting": "[2]; median", "result": 7}, {"measurement": "Endometrial Thickness", "setting": "[2]; range", "result": "0.6-1.1 Cm."}, {"measurement": "Estradiol per mature follicle", "setting": "[2]; range", "result": "107 to 837", "unit": "pmol/L"}, {"measurement": "Number of Days from last letrozole tablet to HCG day", "setting": "[2]; range", "result": "2-9"}, {"measurement": "ED50 in vivo", "setting": "aromatase [3]", "result": "1 to 3", "unit": "µg/kg"}, {"measurement": "FSH and LH", "setting": "mature female rats", "result": "increased FSH and LH"}, {"measurement": "increase in ovarian weight", "setting": "mature female rats", "result": "~30", "unit": "%"}, {"measurement": "half-life", "setting": "[4]", "result": "approximately 45 hours"}, {"measurement": "doses well tolerated", "setting": "[5]", "result": "up to 30 mg"}, {"measurement": "pregnancy, patients", "setting": "[6]; PCOS group, 3 patients", "result": 25, "unit": "%"}, {"measurement": "ovulation, cycles", "setting": "[6]; PCOS group, 9 of 12 cycles", "result": 75, "unit": "%"}, {"measurement": "pregnancy, patients", "setting": "[6]; ovulatory group, one patient", "result": 10, "unit": "%"}, {"measurement": "mean endometrial thickness", "setting": "[6]; ovulatory group", "result": 0.8, "unit": "cm"}, {"measurement": "mean number of mature follicles", "setting": "[6]; ovulatory group", "result": 2.3}, {"measurement": "FSH dose required for adequate ovarian super ovulation", "setting": "[7]; letrozole in conjunction with FSH", "result": "significantly lower FSH dose"}, {"measurement": "ovarian response to FSH stimulation", "setting": "[7]; low responders during ovarian stimulation", "result": "improvement in ovarian response to FSH stimulation"}, {"measurement": "lethal dose", "setting": "mice", "result": "approximately 2000 mg/kg"}, {"measurement": "lethal dose", "setting": "rats", "result": "approximately 2000 mg/kg"}, {"measurement": "ovulation, letrozole treated cycles", "setting": "[8]; 7 of the 10 cycles, PCOS", "result": 70, "unit": "%"}, {"measurement": "mean number of mature follicles", "setting": "[8]; 7 ovulatory cycles, mean", "result": 2.6}, {"measurement": "number of mature follicles, range", "setting": "[8]; 7 ovulatory cycles, range", "result": "1 to 4", "unit": "follicles"}, {"measurement": "mean estradiol per follicle", "setting": "[8]; mean", "result": 378, "unit": "pmol/L"}, {"measurement": "chemical pregnancy", "setting": "[8]; of 10 PCOS patients", "result": "one"}, {"measurement": "clinical pregnancy", "setting": "[8]; of 10 PCOS patients", "result": 2, "unit": "patients"}]}, {"smiles": "CCN(CC)CCOc1ccc(C(=C(Cl)c2ccccc2)c2ccccc2)cc1", "note": "[CC, clomiphene citrate]", "values": [{"measurement": "Day of hCG administration", "setting": "[2]; mean", "result": 12.6}, {"measurement": "Endometrial Thickness", "setting": "[2]; mean", "result": 0.5, "unit": "Cm."}, {"measurement": "Estradiol on day of hCG administration", "setting": "[2]; mean", "result": 2145, "unit": "pmol/L"}, {"measurement": "Estradiol per mature follicle", "setting": "[2]; mean", "result": 1278, "unit": "pmol/L"}, {"measurement": "Follicles >1.5 Cm on day of hCG administration", "setting": "[2]; mean", "result": 1.9}, {"measurement": "LH on day of hCG administration", "setting": "[2]; mean", "result": 16, "unit": "IU/L"}, {"measurement": "Number of Days from last letrozole tablet to HCG day", "setting": "[2]; mean", "result": 4.4}, {"measurement": "Day of hCG administration", "setting": "[2]; median", "result": 12}, {"measurement": "Endometrial Thickness", "setting": "[2]; median", "result": 0.4, "unit": "Cm."}, {"measurement": "Estradiol on day of hCG administration", "setting": "[2]; median", "result": 1668, "unit": "pmol/L"}, {"measurement": "Estradiol per mature follicle", "setting": "[2]; median", "result": 1486, "unit": "pmol/L"}, {"measurement": "Follicles >1.5 Cm on day of hCG administration", "setting": "[2]; median", "result": 2}, {"measurement": "LH on day of hCG administration", "setting": "[2]; median", "result": 8, "unit": "IU/L"}, {"measurement": "Number of Days from last letrozole tablet to HCG day", "setting": "[2]; median", "result": 4}, {"measurement": "Day of hCG administration", "setting": "[2]; range", "result": "11-16"}, {"measurement": "Endometrial Thickness", "setting": "[2]; range", "result": "0.4-0.8 Cm."}, {"measurement": "Estradiol on day of hCG administration", "setting": "[2]; range", "result": "362 to 5210", "unit": "pmol/L"}, {"measurement": "Estradiol per mature follicle", "setting": "[2]; range", "result": "177 to 2404", "unit": "pmol/L"}, {"measurement": "Follicles >1.5 Cm on day of hCG administration", "setting": "[2]; range", "result": "1-5"}, {"measurement": "LH on day of hCG administration", "setting": "[2]; range", "result": "3-66 IU/L"}, {"measurement": "Number of Days from last letrozole tablet to HCG day", "setting": "[2]; range", "result": "2-7"}, {"measurement": "anovulatory women resistant to CC who fail to ovulate", "setting": "anovulatory women; doses up to 150 mg daily", "result": "20% to 25%"}, {"measurement": "women who do not ovulate with CC", "setting": "anovulatory women; in vivo", "result": "20 to 25", "unit": "%"}, {"measurement": "effect on the endometrium (glandular density, vacuolated cells)", "setting": "[9]", "result": "deleterious effect on the endometrium"}]}, {"smiles": "CCC1(c2ccc(N)cc2)CCC(=O)NC1=O", "note": "(centres unmarked) [aminoglutethimide]", "values": [{"measurement": "patients stopping treatment because of side effects", "setting": "[10]", "result": "8-15%"}]}, {"smiles": "CC(C)(C#N)c1cc(Cn2cncn2)cc(C(C)(C)C#N)c1", "note": "[anastrozole]", "values": [{"measurement": "in vivo inhibition of aromatase", "setting": "aromatase [11]", "result": 97, "unit": "%"}]}]}
